The results in this text go back to paper PMC2709467, “Synthesis of Novel 3-Aryl-N-Methyl-1,2,5,6-Tetrahydropyridine Derivatives by Suzuki coupling: As Acetyl Cholinesterase Inhibitors” (The Open Medicinal Chemistry Journal, 2007).

Read-outs that look alike come from different tables or passages of the source.

One assay concerns the target T1, Electric eel AChE (Electrophorus electricus, UniProt O42275).
T1 construct: native commercial enzyme from Sigma, no further details
The assay is described as follows: Ellman assay, […] nm. It is filed as biochemical. In general terms: DTNB colorimetry detects thiols as they appear.

In a further assay the test system is T2, Human Serum AChE.
T2 construct: crude supernatant of citrated fresh blood (plasma), not purified
Description: Ellman assay, […] nm. In kind it is biochemical. To be noted: acetylthiocholine iodide substrate, phosphate buffer pH 8.0, 37 °C, 10 min preincubation.

The mark [1] stands for this setting: acetylthiocholine iodide substrate, phosphate buffer pH 8.0, 37 °C, 10 min preincubation; read-out: Electric eel AChE, IC50 nM.

T1 sequence (O42275 24-633): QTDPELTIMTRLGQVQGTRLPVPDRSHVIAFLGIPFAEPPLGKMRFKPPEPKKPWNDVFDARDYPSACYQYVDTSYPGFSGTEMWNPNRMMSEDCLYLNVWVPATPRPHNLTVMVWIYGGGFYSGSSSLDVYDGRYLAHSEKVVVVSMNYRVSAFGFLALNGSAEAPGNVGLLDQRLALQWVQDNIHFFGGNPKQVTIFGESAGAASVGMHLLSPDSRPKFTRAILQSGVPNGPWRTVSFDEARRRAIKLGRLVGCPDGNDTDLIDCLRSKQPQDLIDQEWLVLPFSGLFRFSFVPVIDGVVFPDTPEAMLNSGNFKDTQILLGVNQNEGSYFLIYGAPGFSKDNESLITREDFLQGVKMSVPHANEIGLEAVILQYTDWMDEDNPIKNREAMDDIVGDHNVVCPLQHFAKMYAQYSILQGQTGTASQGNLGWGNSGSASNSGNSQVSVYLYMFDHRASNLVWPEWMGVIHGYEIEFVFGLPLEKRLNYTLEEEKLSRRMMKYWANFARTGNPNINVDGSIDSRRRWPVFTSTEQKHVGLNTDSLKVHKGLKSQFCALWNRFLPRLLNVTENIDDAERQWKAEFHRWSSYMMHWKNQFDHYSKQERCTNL

In the case of `CN1CCC=C(c2ccc(C(F)(F)F)cc2)C1` [5a, 3-[4-(trifluoromethyl)phenyl]-1,2,5,6-tetrahydro-1-methylpyridine], the results for the half-inhibitory concentration (IC50) at Electric eel AChE (setting [1]) and in the assay with Human Serum AChE were 49.5 nM and 52 nM, respectively.
For `CN1CCC=C(c2ccc(C#N)cc2)C1` [5b, 3-(4-cyanophenyl)-1,2,5,6-tetrahydro-1-methylpyridine], in that order: 64 nM and 68 nM.
`CN1CCC=C(c2ccc(Cl)cc2)C1` [5d, 3-(4-chlorophenyl)-1,2,5,6-tetrahydro-1-methylpyridine]: the IC50 at Electric eel AChE (setting [1]) is 806 nM; in the assay on Human Serum AChE it was 784 nM.
As to `COc1ccc(C2=CCCN(C)C2)cc1` [5e, 3-(4-methoxyphenyl)-1,2,5,6-tetrahydro-1-methylpyridine], the IC50 with Human Serum AChE is 2880 nM.
As to `CN1CCC=C(c2c(Cl)cccc2Cl)C1` [5f, 3-(2,6-dichlorophenyl)-1,2,5,6-tetrahydro-1-methylpyridine], the IC50 stood at 678 nM at Electric eel AChE (setting [1]) and 729 nM in the assay on Human Serum AChE.
For `CN1CCC=C(c2ccc(Oc3ccccc3)cc2)C1` [5g, 3-(4-phenoxyphenyl)-1,2,5,6-tetrahydro-1-methylpyridine], in that order: 1230 nM and 1350 nM.
On the same counts, the results for `CN1CCC=C(c2ccc(-c3ccccc3)c(F)c2)C1` [5h, 3-(2-fluoro-biphenyl-4-yl)-1-methyl-1,2,5,6-tetrahydropyridine] are 118 nM and 116 nM.
On the same counts, the results for `CCOc1cccc(C2=CCCN(C)C2)c1` [5j, 3-(3-ethoxyphenyl)-1,2,5,6-tetrahydro-1-methylpyridine] are 1230 nM and 1220 nM.
On to `CN1CCC=C(c2cccc(Cl)c2F)C1` [5k, 3-(3-chloro-2-fluoro-phenyl)-1-methyl-1,2,5,6-tetrahydropyridine], for which the IC50 was determined as 182 nM at Electric eel AChE (setting [1]) and 170 nM in the assay with Human Serum AChE.
On to `CN(C)C(=O)Oc1cccc([N+](C)(C)C)c1` [Neostigmine, reference compound], for which the IC50 worked out at 36.5 nM on Electric eel AChE (read-out: Electric eel AChE, IC50 nM; acetylthiocholine iodide substrate, phosphate buffer pH 8.0, 37 °C, 10 min preincubation) and 39.2 nM with Human Serum AChE.

By IC50 is commonly meant the point on the concentration scale where inhibition reaches its midpoint.
